Patent US9221827B2, “Antimicrobial compounds and methods of making and using the same” (Melinta Therapeutics, Inc., priority 2011, dated 2015)

System: Escherichia coli strain ATCC25922
Assay: standard microdilution assay to determine minimum inhibitory concentrations (MICs)
Type: cell-based
Description: The in vitro activity of the compounds of the present invention can be determined. Antimicrobial testing is typically performed to determine the minimum inhibitory concentration (MIC). Minimum inhibitory concentrations (MICs) are determined by the microdilution method in a final volume of 100 μl according to protocols outlined by The Clinical and Laboratory Standards Institute (CLSI). Performance standards for reference strains are assessed within the same experimental design to maintain quality control. See, for example, Clinical Laboratory Standards Institute: Methods for dilution antimicrobial susceptibility tests for bacteria that grow aerobically M7-A8. Approved Standard-Eighth Edition. Wayne, Pa.: CLSI; December 2008; and Clinical Laboratory Standards Institute: Performance Standards for Antimicrobial Susceptibility Testing M100-S20; Approved Standard-Twentieth Edition. Wayne, Pa.: CLSI; June 2010.
The compounds of the present invention were tested for antimicrobial activity. […] The compounds were run against Escherichia coli strain ATCC25922 using a standard microdilution assay to determine minimum inhibitory concentrations (MICs). […] A “N/A” means that data is unavailable. It will be recognized by one skilled in the art that the compounds can be assessed against other bacterial organisms and that the presentation of data for activity against Escherichia coli is illustrative and in no way is intended to limit the scope of the present invention. The compounds of the present invention can be assayed against a range of other microorganisms depending upon the performance activity desired to be gathered. Furthermore, the “+”, “−”, and “N/A” representation and the selection of a cutoff value of 16 micrograms/ml is also illustrative and in no way is intended to limit the scope of the present invention.

[1] = Escherichia coli strain ATCC25922, microdilution
[2] = Escherichia coli strain ATCC25922, standard microdilution assay

C[C@H](N)C/C=C/c1cc(Cl)c(F)c(-c2cc3cn(-c4ccc(CNCCCNC(=N)N)cc4)c(=O)nc3[nH]2)c1 [Compound 312]
E. coli ATCC25922 MIC [1]: + (a “+” indicates that the compound has an MIC value of 16 micrograms/ml or less)

CC(N)CCCc1cc(SC(F)(F)F)cc(-c2cc3cn(-c4ccc(C(NCCCNC(=N)N)C(=O)O)cc4)c(=O)nc3[nH]2)c1 (stereo not shown) [Compound 503]
E. coli ATCC25922 MIC [1]: − (a “−” indicates that the compound has an MIC value greater than 16 micrograms/ml)

N=C(N)NCCCNCc1ccc(-n2cc3cc(-c4cc(C5CC5CN)cc(C(F)(F)F)c4)[nH]c3nc2=O)cc1 (stereo not shown) [Compound 110]
E. coli ATCC25922 MIC [1]: + (a “+” indicates that the compound has an MIC value of 16 micrograms/ml or less)

N=C(N)NCCCNCc1c(F)cc(-n2cc3cc(-c4cc(CCCCN)cc(OC(F)(F)F)c4)[nH]c3nc2=O)cc1F [Compound 52]
E. coli ATCC25922 MIC [1]: + (a “+” indicates that the compound has an MIC value of 16 micrograms/ml or less)

C[C@H](N)CCCc1cc(-c2cc3cn(-c4ccc(CNCCCNC(=N)N)cc4)c(=O)nc3[nH]2)cc(C(F)(F)F)c1 [Compound 248]
E. coli ATCC25922 MIC [1]: + (a “+” indicates that the compound has an MIC value of 16 micrograms/ml or less)

N=C(N)NCCCNCc1ccc(-c2c[nH]c(NC(=O)Nc3ccc(C4CC4)cc3OCCCN)nc2=O)cc1 [Compound 184]
E. coli ATCC25922 MIC [1]: + (a “+” indicates that the compound has an MIC value of 16 micrograms/ml or less)

C[C@H](N)CCCc1cc(SC(F)F)cc(-c2cc3cn(-c4ccc(CNCCCNC(=N)N)cc4)c(=O)nc3[nH]2)c1 [Compound 305]
E. coli ATCC25922 MIC [1]: + (a “+” indicates that the compound has an MIC value of 16 micrograms/ml or less)

C[C@H](N)CCCc1cc(Cl)c(F)c(-c2cc3cn(-c4ccc(CNCCCN/C(N)=N\[N+](=O)[O-])cc4)c(=O)nc3[nH]2)c1 [Compound 394]
E. coli ATCC25922 MIC [2]: + (a “+” indicates that the compound has an MIC value of 16 micrograms/ml or less)

CCc1cc(CCCC(C)N)cc(-c2cc3cn(-c4ccc(C(C)NCCCNC(=N)N)cc4)c(=O)nc3[nH]2)c1F (stereo not shown) [Compound 300]
E. coli ATCC25922 MIC [1]: + (a “+” indicates that the compound has an MIC value of 16 micrograms/ml or less)

CC(C)(N)CCCc1cc(Cl)c(F)c(-c2cc3cn(-c4ccc(CNCCCNC(=N)N)cc4)c(=O)nc3[nH]2)c1 [Compound 295]
E. coli ATCC25922 MIC [1]: + (a “+” indicates that the compound has an MIC value of 16 micrograms/ml or less)

CC(N)CCCc1cc(SC(F)(F)F)cc(-c2cc3cn(-c4ccc(C(CCO)NCCCNC(=N)N)cc4)c(=O)nc3[nH]2)c1 (stereo not shown) [Compound 507]
E. coli ATCC25922 MIC [1]: + (a “+” indicates that the compound has an MIC value of 16 micrograms/ml or less)

CC(C)(CN)CCc1cc(Cl)c(F)c(-c2cc3cn(-c4ccc(CNCCCNC(=N)N)cc4)c(=O)nc3[nH]2)c1 [Compound 243]
E. coli ATCC25922 MIC [1]: + (a “+” indicates that the compound has an MIC value of 16 micrograms/ml or less)

CC(CCN)Cc1cc(F)c(Cl)c(-c2cc3cn(-c4ccc(CNCCCNC(=N)N)cc4)c(=O)nc3[nH]2)c1 (stereo not shown) [Compound 128]
E. coli ATCC25922 MIC [1]: + (a “+” indicates that the compound has an MIC value of 16 micrograms/ml or less)

N=C(N)NCCCNCc1ccc(-n2cc3cc(-c4cc(CCCCN)cc(Cl)c4C(F)(F)F)[nH]c3nc2=O)cc1 [Compound 226]
E. coli ATCC25922 MIC [1]: + (a “+” indicates that the compound has an MIC value of 16 micrograms/ml or less)

C[C@H](N)CCCc1cc(-c2cc3cn(-c4ccc([C@H](C)NCCCNC(=N)N)cc4)c(=O)nc3[nH]2)cc(F)c1F [Compound 464]
E. coli ATCC25922 MIC [2]: + (a “+” indicates that the compound has an MIC value of 16 micrograms/ml or less)

Cc1c(CCCCN)cc(-c2cc3cn(-c4ccc(CNCCCNC(=N)N)cc4)c(=O)nc3[nH]2)cc1[N+](=O)[O-] [Compound 121]
E. coli ATCC25922 MIC [1]: + (a “+” indicates that the compound has an MIC value of 16 micrograms/ml or less)

Cc1c(C#N)cc(CCCCN)cc1-c1cc2cn(-c3ccc(CNCCCNC(=N)N)cc3)c(=O)nc2[nH]1 [Compound 134]
E. coli ATCC25922 MIC [1]: + (a “+” indicates that the compound has an MIC value of 16 micrograms/ml or less)

N=C(N)NCCCNCc1ccc(-n2cc3cc(-c4cc(OC(F)(F)F)cc(C(O)CCCN)c4)[nH]c3nc2=O)cc1 (stereo not shown) [Compound 42]
E. coli ATCC25922 MIC [1]: + (a “+” indicates that the compound has an MIC value of 16 micrograms/ml or less)

Cc1c(CC(C)C)cc(CCC[C@H](C)N)cc1-c1cc2cn(-c3ccc([C@H](C)NCCCNC(=N)N)cc3)c(=O)nc2[nH]1 [Compound 453]
E. coli ATCC25922 MIC [2]: + (a “+” indicates that the compound has an MIC value of 16 micrograms/ml or less)

N=C(N)NCCCNCc1ccc(-n2cc3cc(-c4cc(CC[C@H](O)CN)cc(OC(F)(F)F)c4)[nH]c3nc2=O)cc1 [Compound 239]
E. coli ATCC25922 MIC [1]: + (a “+” indicates that the compound has an MIC value of 16 micrograms/ml or less)

CC(N)CCCc1cc(-c2cc3cn(-c4ccc(C(CC(=O)O)NCCCNC(=N)N)cc4)c(=O)nc3[nH]2)cc(C(F)(F)F)c1 (stereo not shown) [Compound 490]
E. coli ATCC25922 MIC [1]: − (a “−” indicates that the compound has an MIC value greater than 16 micrograms/ml)

COC(=O)CC(NCCCNC(=N)N)c1ccc(-n2cc3cc(-c4cc(CCCC(C)N)cc(C(F)(F)F)c4)[nH]c3nc2=O)cc1 (stereo not shown) [Compound 488]
E. coli ATCC25922 MIC [1]: + (a “+” indicates that the compound has an MIC value of 16 micrograms/ml or less)

N=C(N)NCCCNCc1ccc(-n2cc3cc(-c4cc(CCC5COCC5N)cc(OC(F)(F)F)c4)[nH]c3nc2=O)cc1 (stereo not shown) [Compound 476]
E. coli ATCC25922 MIC [1]: + (a “+” indicates that the compound has an MIC value of 16 micrograms/ml or less)

CC(C)(N)CCCc1ccc(F)c(-c2cc3cn(-c4ccc(CNCCCNC(=N)N)cc4)c(=O)nc3[nH]2)c1 [Compound 130]
E. coli ATCC25922 MIC [1]: + (a “+” indicates that the compound has an MIC value of 16 micrograms/ml or less)

COc1c(CCCCN)cc(-c2cc3cn(-c4ccc(CNCCCNC(=N)N)cc4)c(=O)nc3[nH]2)cc1OC(F)(F)F [Compound 44]
E. coli ATCC25922 MIC [1]: + (a “+” indicates that the compound has an MIC value of 16 micrograms/ml or less)

CC(N)COCc1cc(Cl)c(F)c(-c2cc3cn(-c4ccc(C(C)NCCCNC(=N)N)cc4)c(=O)nc3[nH]2)c1 (stereo not shown) [Compound 376]
E. coli ATCC25922 MIC [2]: + (a “+” indicates that the compound has an MIC value of 16 micrograms/ml or less)

C=CC(NCCCNC(=N)N)c1ccc(-n2cc3cc(-c4cc(CCCC(C)N)cc(Cl)c4F)[nH]c3nc2=O)cc1 (stereo not shown) [Compound 481]
E. coli ATCC25922 MIC [1]: + (a “+” indicates that the compound has an MIC value of 16 micrograms/ml or less)

COC(=O)C(NCCCNC(=N)N)c1ccc(-n2cc3cc(-c4cc(CCCC(C)N)cc(SC(F)(F)F)c4)[nH]c3nc2=O)cc1 (stereo not shown) [Compound 498]
E. coli ATCC25922 MIC [1]: + (a “+” indicates that the compound has an MIC value of 16 micrograms/ml or less)

N=C(N)NCCCNCc1ccc(-n2cc3cc(-c4cc(CCCN)cc(Cl)c4Cl)[nH]c3nc2=O)cc1 [Compound 224]
E. coli ATCC25922 MIC [1]: + (a “+” indicates that the compound has an MIC value of 16 micrograms/ml or less)

Cc1c(CC(C)C)cc(CCC[C@H](C)N)cc1-c1cc2cn(-c3ccc(CNCCCNC(=N)N)cc3)c(=O)nc2[nH]1 [Compound 452]
E. coli ATCC25922 MIC [2]: + (a “+” indicates that the compound has an MIC value of 16 micrograms/ml or less)

N=C(N)NCCCNCc1ccc(-n2cc3cc(-c4cc(CCCCN)cc([N+](=O)[O-])c4Cl)[nH]c3nc2=O)cc1 [Compound 115]
E. coli ATCC25922 MIC [1]: + (a “+” indicates that the compound has an MIC value of 16 micrograms/ml or less)
